This note sets out measurements from patent US10544130B2, “Metallo-beta-lactamase inhibitors” (priority 2015, dated 2020).

The subject of this series is Pseudomonas aeruginosa PAO1 MB9798 (efflux+, IMP-1). The settings on record: ratio MITC95 PA 9798/MITC95 PA 9799; imipenem at 2 μg/mL. The method, boiled down:
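Isogenic PAO1 pair (efflux+ MB9798, efflux− MB9799, both IMP-1) tested by microbroth MIC with fixed imipenem and/or ceftazidime, usually at CLSI breakpoint, plus fixed class A/C inhibitor against AmpC. MBL inhibitor titrated; concentration restoring susceptibility recorded and fold difference between strains taken as efflux extent.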

Structures are written as SMILES.

`NC[C@@H](N)CNS(=O)(=O)c1ccc(-c2cccc(-c3n[nH]c(N)n3)c2)c(-c2nn[nH]n2)c1S(N)(=O)=O` [Example 230, (R)-3′-(5-amino-1H-1,2,4-triazol-3-yl)-N4-(2,3-diaminopropyl)-2-(2H-tetrazol-5-yl)-[1,1′-biphenyl]-3,4-disulfonamide]: the Efflux ratio worked out at 1.00.

For `Nc1ccc(-c2ccc(S(=O)(=O)N[C@@H]3CCNC3)c(S(N)(=O)=O)c2-c2nn[nH]n2)cn1` [Example 194, (R)-4-(6-aminopyridin-3-yl)-N^1-(pyrrolidin-3-yl)-3-(2H-tetrazol-5-yl)benzene-1,2-disulfonamide], the Efflux ratio turned out to be 0.80. The figure for `Nc1nc2c(-c3ccc(S(=O)(=O)N[C@H]4CNC[C@@H]4F)c(S(N)(=O)=O)c3-c3nnn[nH]3)cccc2s1` [Example 59, 4-(2-amino-1,3-benzothiazol-4-yl)-N1-[(3S,4S)-4-fluoropyrrolidin-3-yl]-3-(1H-tetrazol-5-yl)benzene-1,2-disulfonamide] is 1.00; for `CNS(=O)(=O)c1ccc(-c2cccc3sc(N)nc23)c(-c2nn[nH]n2)c1S(N)(=O)=O` [Example 152, 4-(2-aminobenzo[d]thiazol-4-yl)-N1-methyl-3-(2H-tetrazol-5-yl)benzene-1,2-disulfonamide] it is 8.00; for `NC[C@@H](O)CNS(=O)(=O)c1ccc(-c2cccc3[nH]cnc23)c(-c2nn[nH]n2)c1S(N)(=O)=O` [Example 301, (R)-4-(1H-benzo[d]imidazol-4-yl)-N1-(3-amino-2-hydroxypropyl)-3-(2H-tetrazol-5-yl)-benzene-1,2-disulfonamide] it is 1.00. The figure for `CN1CCOC(CNS(=O)(=O)c2ccc(-c3cccc4sc(N)nc34)c(-c3nnn[nH]3)c2S(N)(=O)=O)C1` (centres unmarked) [Example 17, 4-(2-amino-1,3-benzothiazol-4-yl)-N1-[(4-methylmorpholin-2-yl)methyl]-3-(1H-tetrazol-5-yl)benzene-1,2-disulfonamide] is 2.00; for `Nc1ccc(-c2ccc(S(=O)(=O)NC[C@@H]3CNCCN3)c(S(N)(=O)=O)c2-c2nn[nH]n2)cn1` [Example 312, (S)-4-(6-aminopyridin-3-yl)-N1-(piperazin-2-ylmethyl)-3-(2H-tetrazol-5-yl)benzene-1,2-disulfonamide] it is 1.00. With `Nc1ncccc1-c1ccc(S(=O)(=O)NC[C@@H](N)CO)c(S(N)(=O)=O)c1-c1nn[nH]n1` [Example 214, (R)-N1-(2-amino-3-hydroxypropyl)-4-(2-aminopyridin-3-yl)-3-(2H-tetrazol-5-yl)benzene-1,2-disulfonamide], the Efflux ratio worked out at 8.00. The figure for `NS(=O)(=O)c1c(S(=O)(=O)N[C@H]2C[C@H](N)C2)ccc(-c2cccc3[nH]cnc23)c1-c1nn[nH]n1` [Example 200, N^1-((1r,3r)-3-aminocyclobutyl)-4-(1H-benzo[d]imidazol-4-yl)-3-(2H-tetrazol-5-yl)benzene-1,2-disulfonamide] is 1.00. The result for `Nc1nc2c(-c3ccc(S(=O)(=O)N4CC[C@@H](N)C4)c(S(N)(=O)=O)c3-c3nnn[nH]3)cccc2s1` [Example 62, 3-(2-amino-1,3-benzothiazol-4-yl)-6-{[(3R)-3-aminopyrrolidin-l-yl]sulfonyl}-2-(1H-tetrazol-5-yl)benzenesulfonamide] reads 1.00; that for `NC[C@H](CO)NS(=O)(=O)c1ccc(-c2cccnc2N)c(-c2nn[nH]n2)c1S(N)(=O)=O` [Example 215, (R)-N1-(1-amino-3-hydroxypropan-2-yl)-4-(2-aminopyridin-3-yl)-3-(2H-tetrazol-5-yl)benzene-1,2-disulfonamide], 1.00; that for `Nc1nc2c(-c3ccc(S(=O)(=O)N[C@@H]4CCNC4)c(S(N)(=O)=O)c3-c3nn[nH]n3)cc(I)cc2[nH]1` [Example 234, (R)-4-(2-amino-6-iodo-1H-benzo[d]imidazol-4-yl)-N^1-(pyrrolidin-3-yl)-3-(2H-tetrazol-5-yl)benzene-1,2-disulfonamide], 1.00. The figure for `Nc1nc2c(-c3ccc(S(=O)(=O)NC[C@H]4CCNC4)c(S(N)(=O)=O)c3-c3nnn[nH]3)cccc2s1` [Example 73, 4-(2-amino-1,3-benzothiazol-4-yl)-N^1-[(3S)-pyrrolidin-3-ylmethyl]-3-(1H-tetrazol-5-yl)benzene-1,2-disulfonamide] is 0.50; for `Nc1nc2c(-c3ccc(S(=O)(=O)N4CCNC(=O)C4)c(S(N)(=O)=O)c3-c3nnn[nH]3)cccc2s1` [Example 28, 3-(2-amino-1,3-benzothiazol-4-yl)-6-[(3-oxopiperazin-1-yl)sulfonyl]-2-(1H-tetrazol-5-yl)benzenesulfonamide] it is 4.00; for `CN(C)CCNS(=O)(=O)c1ccc(-c2cccc3sc(N)nc23)c(-c2nnn[nH]2)c1S(N)(=O)=O` [Example 22, 4-(2-amino-1,3-benzothiazol-4-yl)-N^1-[2-(dimethylamino)ethyl]-3-(1H-tetrazol-5-yl)benzene-1,2-disulfonamide] it is 1.00. Turning to `NCC(CN)NS(=O)(=O)c1ccc(-c2cccc(C3N=NC(N)=N3)c2)c(-c2nn[nH]n2)c1S(N)(=O)=O` (centres unmarked) [Example 229, 3′-(5-amino-3H-1,2,4-triazol-3-yl)-N4-(1,3-diaminopropan-2-yl)-2-(2H-tetrazol-5-yl)-[1,1′-biphenyl]-3,4-disulfonamide], the Efflux ratio was 0.50. The result for `Nc1nc2c(-c3ccc(S(=O)(=O)N[C@H]4CCCNC4)c(S(N)(=O)=O)c3-c3nnn[nH]3)cccc2s1` [Example 67, 4-(2-amino-1,3-benzothiazol-4-yl)-N1-[(3S)-piperidin-3-yl]-3-(1H-tetrazol-5-yl)benzene-1,2-disulfonamide] reads 1.00; that for `NC[C@H](N)CNS(=O)(=O)c1ccc(-c2cccnc2N)c(-c2nn[nH]n2)c1S(N)(=O)=O` [Example 213, (S)-4-(2-aminopyridin-3-yl)-N1-(2,3-diaminopropyl)-3-(2H-tetrazol-5-yl)benzene-1,2-disulfonamide], 2.00; that for `Nc1nc2c(-c3ccc(S(=O)(=O)N[C@H]4CCNC4)c(S(N)(=O)=O)c3-c3nnn[nH]3)cccc2s1` [Example 60, 4-(2-amino-1,3-benzothiazol-4-yl)-N1-[(3S)-pyrrolidin-3-yl]-3-(1H-tetrazol-5-yl)benzene-1,2-disulfonamide], 0.50. The figure for `CN(CCc1ccncc1)S(=O)(=O)c1ccc(-c2cccc3sc(N)nc23)c(-c2nnn[nH]2)c1S(N)(=O)=O.O=C(O)C(F)(F)F` [Example 100, 4-(2-(4-(2-aminobenzo[d]thiazol-4-yl)-N-methyl-2-sulfamoyl-3-(1H-tetrazol-5-yl)phenylsulfonamido)ethyl)pyridin-1-ium 2,2,2-trifluoroacetate] is 32.00; for `Nc1nc(-c2cccc(-c3ccc(S(=O)(=O)N[C@@H]4CCNC4)c(S(N)(=O)=O)c3-c3nn[nH]n3)c2)n[nH]1` [Example 231, (R)-3′-(5-amino-1H-1,2,4-triazol-3-yl)-N4-(pyrrolidin-3-yl)-2-(2H-tetrazol-5-yl)-[1,1′-biphenyl]-3,4-disulfonamide] it is 1.00; for `CN1CC[C@@H](CNS(=O)(=O)c2ccc(-c3cccc4sc(N)nc34)c(-c3nnn[nH]3)c2S(N)(=O)=O)C1` [Example 76, 4-(2-amino-1,3-benzothiazol-4-yl)-N^1-{[(3R)-1-methylpyrrolidin-3-yl]methyl}-3-(1H-tetrazol-5-yl)benzene-1,2-disulfonamide] it is 0.50. The figure for `Nc1nc2c(-c3ccc(S(=O)(=O)NC4CNC4)c(S(N)(=O)=O)c3-c3nn[nH]n3)cccc2s1` [Example 146, 4-(2-aminobenzo[d]thiazol-4-yl)-N1-(azetidin-3-yl)-3-(2H-tetrazol-5-yl)benzene-1,2-disulfonamide] is 0.50; for `CN(C)C1CCN(S(=O)(=O)c2ccc(-c3cccc4sc(N)nc34)c(-c3nnn[nH]3)c2S(N)(=O)=O)CC1` [Example 26, 3-(2-amino-1,3-benzothiazol-4-yl)-6-{[4-(dimethylamino)piperidin-1-yl]sulfonyl}-2-(1H-tetrazol-5-yl)benzenesulfonamide] it is 2.00; for `NS(=O)(=O)c1ccc(-c2cccc3cn[nH]c23)c(-c2nn[nH]n2)c1S(N)(=O)=O` [Example 3, 4-(1H-indazol-7-yl)-3-(2H-tetrazol-5-yl)benzene-1,2-disulfonamide] it is 2.00. As for `C[C@H](CN)NS(=O)(=O)c1ccc(-c2cccnc2N)c(-c2nn[nH]n2)c1S(N)(=O)=O` [Example 212, (R)-N1-(1-aminopropan-2-yl)-4-(2-aminopyridin-3-yl)-3-(2H-tetrazol-5-yl)benzene-1,2-disulfonamide], the Efflux ratio is 1.00.

Take `Nc1nc2c(-c3ccc(S(=O)(=O)N4CC5CC4CS5(=O)=O)c(S(N)(=O)=O)c3-c3nnn[nH]3)cccc2s1` (centres unmarked) [Example 40, 3-(2-amino-1,3-benzothiazol-4-yl)-6-[(2,2-dioxido-2-thia-5-azabicyclo[2.2.1]hept-5-yl)sulfonyl]-2-(1H-tetrazol-5-yl)benzenesulfonamide]: the Efflux ratio amounted to 16.00.

Regarding `CS(=O)(=O)Nc1ccc(-c2ccc(S(=O)(=O)N[C@@H]3CCNC3)c(S(N)(=O)=O)c2-c2nnn[nH]2)cc1` [Example 136, (R)-4′-(methylsulfonamido)-N4-(pyrrolidin-3-yl)-2-(1H-tetrazol-5-yl)-[1,1′-biphenyl]-3,4-disulfonamide], the Efflux ratio is reported as 2.00. Consider `Nc1nc2c(-c3ccc(S(=O)(=O)N[C@H]4CCNC4)c(S(N)(=O)=O)c3-c3nn[nH]n3)cccc2[nH]1` [Example 162, 4-(2-amino-1H-benzo[d]imidazol-4-yl)-N^1-((S)-pyrrolidin-3-yl)-3-(2H-tetrazol-5-yl)benzene-1,2-disulfonamide], for which the Efflux ratio came out at 0.87.
